ChEMBL document CHEMBL1201862, “PubChem BioAssay data set” (2004)
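Cultured in 96-well plates, cells were exposed to test compound for 48 hours across five concentrations. At the GI50, growth is halved.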 Calls of active or inactive are those of the source. Cut-off read from the data, not from the text of the source: active = GI50 up to about 1.1 µM and inactive = higher.

Experiments:
Assay in all cases: NCI anticancer screen, dose series, 48 h
COLO 205 = system: COLO 205
DLD-1 = system: DLD-1
SNB-75 = system: SNB-75
786-0 = system: 786-0
SN12C = system: SN12C
SW-620 = system: SW-620
HCT-116 = system: HCT-116
SK-OV-3 = system: SK-OV-3
UACC-62 = system: UACC-62
OVCAR-5 = system: OVCAR-5
ACHN = system: ACHN
LOX IMVI = system: LOX IMVI
HOP-92 = system: HOP-92
SK-MEL-2 = system: SK-MEL-2
SR = system: SR
NCI-H226 = system: NCI-H226
M14 = system: M14
UO-31 = system: UO-31

Measured: GI50

Oc1cc(-c2ccccc2)c2ccccc2n1
inactive: COLO 205 > 100 µM | DLD-1 56 µM | SNB-75 13 µM | 786-0 > 100 µM | SN12C 30.9 µM | SW-620 > 100 µM | HCT-116 64.7 µM | SK-OV-3 20.5 µM | UACC-62 48.3 µM | OVCAR-5 64.4 µM | ACHN 33.4 µM | LOX IMVI 57.9 µM | HOP-92 5.62 µM | SK-MEL-2 72.1 µM | SR 45.5 µM | NCI-H226 25.8 µM | M14 41.8 µM | UO-31 15.1 µM

CCOC(=O)NN(C(=O)OCC)C(C(=O)c1ccc(Cl)cc1)=C1NCCN1
inactive: COLO 205 > 100 µM | DLD-1 > 100 µM | SNB-75 52.4 µM | 786-0 > 100 µM | SN12C > 100 µM | SW-620 > 100 µM | HCT-116 > 100 µM | SK-OV-3 > 100 µM | UACC-62 > 100 µM | OVCAR-5 > 100 µM | ACHN > 100 µM | LOX IMVI > 100 µM | HOP-92 > 100 µM | SK-MEL-2 > 100 µM | SR > 100 µM | NCI-H226 > 100 µM | M14 > 100 µM | UO-31 > 100 µM

CCOC(=O)[C@H](CCCNC(=O)OC(C)(C)C)NCc1ccc(OC)c(OC)c1
inactive: COLO 205 > 100 µM | DLD-1 > 100 µM | SNB-75 > 100 µM | 786-0 > 100 µM | SN12C > 100 µM | SW-620 > 100 µM | HCT-116 > 100 µM | SK-OV-3 > 100 µM | UACC-62 > 100 µM | OVCAR-5 > 100 µM | ACHN > 100 µM | LOX IMVI > 100 µM | HOP-92 > 100 µM | SK-MEL-2 > 100 µM | SR > 100 µM | NCI-H226 > 100 µM | M14 > 100 µM | UO-31 > 100 µM

CCOC(=O)NC(=O)c1cn(-c2ccc(CCOC(=O)NCCCCCCNC(=O)OCCc3ccc(-n4c(=O)[nH]cc(C(=O)NC(=O)OCC)c4=O)cc3)cc2)c(=O)[nH]c1=O
inactive: COLO 205 > 100 µM | DLD-1 > 100 µM | SNB-75 27.5 µM | 786-0 48.5 µM | SN12C > 100 µM | SW-620 > 100 µM | HCT-116 > 100 µM | SK-OV-3 47.6 µM | UACC-62 24.1 µM | OVCAR-5 > 100 µM | ACHN 29.4 µM | LOX IMVI 56.6 µM | HOP-92 > 72.4 µM | SK-MEL-2 > 100 µM | SR > 62.8 µM | M14 > 100 µM | UO-31 > 65.8 µM

COc1ccc2c(c1)c1c3n2CCNN=C3CCC1
inactive: COLO 205 > 91 µM | DLD-1 > 100 µM | SNB-75 48.6 µM | 786-0 > 100 µM | SN12C > 61.7 µM | SW-620 > 100 µM | HCT-116 99.5 µM | SK-OV-3 > 75.2 µM | UACC-62 60.4 µM | OVCAR-5 > 57.4 µM | ACHN 72.4 µM | LOX IMVI > 64.6 µM | HOP-92 > 49.2 µM | SK-MEL-2 > 100 µM | SR 10.4 µM | NCI-H226 > 100 µM | M14 > 100 µM | UO-31 > 43.7 µM

O=C(O)c1ccc(S(=O)(=O)c2ccccc2)c([N+](=O)[O-])c1
inactive: COLO 205 > 100 µM | DLD-1 > 100 µM | SNB-75 > 100 µM | 786-0 > 100 µM | SN12C > 100 µM | SW-620 > 100 µM | HCT-116 > 100 µM | SK-OV-3 > 100 µM | UACC-62 > 100 µM | OVCAR-5 > 100 µM | ACHN > 100 µM | LOX IMVI > 100 µM | HOP-92 > 100 µM | SK-MEL-2 > 100 µM | SR > 100 µM | NCI-H226 > 100 µM | M14 > 100 µM | UO-31 > 100 µM

O=C(NC1C=Nc2ccccc2NC1=O)c1ccccc1Cl (centres undefined)
inactive: COLO 205 22.7 µM | DLD-1 59.2 µM | SNB-75 50 µM | 786-0 56 µM | SN12C 64.4 µM | SW-620 13.6 µM | HCT-116 39.1 µM | SK-OV-3 > 100 µM | UACC-62 33.6 µM | OVCAR-5 > 100 µM | ACHN 39.6 µM | LOX IMVI 18.2 µM | HOP-92 31.4 µM | SK-MEL-2 36.9 µM | SR 31.8 µM | NCI-H226 94 µM | M14 80.5 µM | UO-31 24.9 µM

C[Si](C)(C)C(CCCCSc1ccccc1)(Sc1ccccc1)Sc1ccccc1
inactive: COLO 205 > 100 µM | DLD-1 > 100 µM | SNB-75 > 100 µM | 786-0 > 100 µM | SN12C > 100 µM | SW-620 > 100 µM | HCT-116 > 100 µM | SK-OV-3 > 100 µM | UACC-62 36.1 µM | ACHN > 100 µM | LOX IMVI > 100 µM | HOP-92 73.6 µM | SK-MEL-2 > 100 µM | SR > 100 µM | UO-31 > 100 µM

CCCCCCCCCCCCC(CCCCCCCCCCCC)OP(=O)(O)O
inactive: COLO 205 > 100 µM | DLD-1 > 100 µM | SNB-75 43.4 µM | 786-0 > 100 µM | SN12C > 100 µM | SW-620 > 100 µM | HCT-116 73.3 µM | SK-OV-3 > 100 µM | UACC-62 > 100 µM | OVCAR-5 > 100 µM | ACHN 76.2 µM | LOX IMVI > 100 µM | HOP-92 56.1 µM | SK-MEL-2 65.2 µM | SR > 100 µM | NCI-H226 75.9 µM | M14 > 100 µM | UO-31 55.6 µM

O=c1cnn2c(n1)sc1ccc3ccccc3c12
inactive: COLO 205 > 100 µM | DLD-1 > 100 µM | SNB-75 > 100 µM | 786-0 > 100 µM | SN12C > 100 µM | SW-620 > 100 µM | HCT-116 87.9 µM | SK-OV-3 > 100 µM | UACC-62 > 100 µM | OVCAR-5 > 100 µM | ACHN > 100 µM | LOX IMVI 76.6 µM | HOP-92 > 100 µM | SK-MEL-2 > 100 µM | SR 59.4 µM | NCI-H226 > 100 µM | M14 > 100 µM | UO-31 > 100 µM

CCC(=O)N/N=C(\C=C\c1cccc(O)c1)c1sc(Nc2ccc(C)cc2[N+](=O)[O-])nc1C
inactive: COLO 205 > 100 µM | DLD-1 43.6 µM | SNB-75 14.9 µM | 786-0 > 100 µM | SN12C > 100 µM | SW-620 > 100 µM | HCT-116 > 100 µM | SK-OV-3 > 100 µM | UACC-62 > 100 µM | OVCAR-5 > 100 µM | ACHN > 100 µM | LOX IMVI 58.6 µM | HOP-92 13.7 µM | SK-MEL-2 > 100 µM | SR 73.8 µM | NCI-H226 > 100 µM | M14 > 100 µM | UO-31 > 100 µM
